From US7273847B2, “Peptides with antioxidant and antimicrobial properties” (priority 2000, dated 2007) come the findings set out here.

The subject of one test is E. coli. Description: CFU count over a six hour incubation. The test is classed as cell-based. The note with it: at 1 and 2 hrs; confounded by bacterial aggregation.
The test system of test [1] is P. aeruginosa (PAO1 mutant). Description: Radial diffusion assay. The class given is cell-based.
The next test concerns RAW 264.7 macrophages. Put plainly: Protection from t-BOOH induced cell death (Trypan Blue exclusion). The class given is cell-based, murine. The note with it: 40 μM t-BOOH, 24 hrs; for Half maximal concentration for protection from t-BOOH-induced death: Trypan Blue. The procedure:
A murine macrophage cell line (RAW 264.7) was adhered to 24-well plates (2×10^4 cells/well) in Ham's F12 media containing 10% FBS overnight at 37° C. in a 10% CO2 atmosphere. After washing, the cells were exposed to 40 μM tert-butyl hydroperoxide (t-BOOH) in serum free Ham's F12 for 24 hrs in the presence of various concentrations of the surfactant proteins. Viability was assessed for exclusion of the vital dye Trypan Blue.
Exposure of cultured mammalian cells to tert-butylhydroperoxide (t-BOOH) promotes a variety of toxic events including depletion of glutathione, mitochondrial dysfunction and peroxidation of membrane lipids, as described in Sestili et al., FEBS Lett. 457(1):139-143 (1999). To determine if SP-A and SP-D protect cells from oxidative stress, RAW 264.7 murine macrophages were exposed to 40 μM t-BOOH for 24 hrs in the presence of SP-A or SP-D at concentrations from 0.01 to 50 μg/ml. Cell death was assessed by staining cells with the vital dye Trypan Blue. As depicted by FIG. 5, RAW 264.7 macrophages were incubated with various concentrations of SP-A or SP-D and 40 μM t-BOOH. Cell viability was assessed by counting the percentage of cells that excluded the vital dye Trypan Blue. Data are mean±S.E.M., n=3 for collectins except 50 μg/ml point where n=2.

In a further test the test system is LDL. Description: TBARS assay of copper-induced oxidation of LDL. The test is classed as biochemical, human. To be noted: for I.C.50 (half-maximal point) for inhibition of copper-induced oxidation of LDL / Concentration of complete inhibition of LDL oxidation (to basal levels) / IC50: 10 μM Cu2+, TBARS; for I.C.50 (half-maximal point) for inhibition of copper-induced oxidation of LDL: 4 hours; for IC50: read-out: I.C.50 for inhibition of copper-induced oxidation of LDL; for TBARS LDL Malondialdehyde: mean ± S.E.M., n=3; for Concentration required to provide the same level of antioxidant protection: LDL, level of 500 μg/ml of rat serum. As to the method:
Substrates for lipid oxidation included mixtures of natural and synthetic glycerophospholipids that are found in pulmonary surfactant and human LDL. The surfactant lipid mix, composed of egg phosphatidylcholine, dipalmitoylphosphatidylcholine, cholesterol and 1-oleoyl-2-linoleoyl-sn-glycero-3-phosphocholine (1:1:0.15:0.15, w/w, respectively) (Avanti Polar Lipids) in chloroform, was dried to a film under nitrogen. Following hydration in PBS or 0.15 M NaCl for 30 min, multilamellar vesicles were generated by vigorous vortexing for 5 minutes. LDL were isolated from the plasma of normal blood donors by density gradient ultracentrifugation (density=1.019-1.063 g/ml) as previously described in Qin et al., Am. J. Physiol. 274(5 Pt 2): H1836-1840 (1998), and stored in saline-EDTA. Just prior to use, EDTA was removed by dialysis against PBS, and the concentration of LDL was determined by Lowry assay (in milligrams of LDL-associated protein).
Stock solutions of 10 mM CuSO4 were freshly prepared daily. Reaction mixtures containing 1 mg/mi surfactant lipids or 150 μg/ml LDL were incubated with 10 μM CuSO4 for 24 hours or 4 hours, respectively, in the presence of putative oxidation inhibitors or controls at 37° C. in a shaking water bath in accordance with the method of Gelvan et al., Biochim. Biophys. Acta 1035(3):353-360 (1990). Control reactions which included LDL only, 10 μM CuSO4 or protein controls of bovine serum albumin (BSA), rat IgG, recombinant MBP, rat serum and human complement C1q were performed concurrently with experimental samples. Thiobarbituric acid-reactive substances (TBARS) were measured using a method adapted from Gelvan et al., Biochim. Biophys. Acta 1035(3):353-360 (1990). Samples and 0-10 μM […] standards were developed by addition of a solution composed of 0.375% thiobarbituric acid, 15% trichloroacetic acid, and 0.25N HCl at a volume ratio of 1:2, sample: developer. Following incubation at 95° C. for 30 minutes and centrifugation at 14,000 rpm for 15 minutes, an aliquot was read at 540 nm in a spectrophotometer. For continuous assessment of lipid oxidation, the accumulation of conjugated dienes during LDL oxidation was monitored spectrophotometrically in accordance with the method of Esterbauer et al., Free Rad. Med. Biol. 13, 341-390 (1992). Mixtures of 150 μg/ml LDL, 10 μM copper, and various amounts of surfactant proteins or control proteins were placed in quartz cuvettes and allowed to oxidize at room temperature over 335 minutes. Conjugated diene formation was assessed by measuring absorbance at 234 nm in a spectrophotometer.
The data are set forth graphically in FIG. 3. Various concentrations of recombinant wild type SP-A (circle), mutant SP-A containing a deletion of the collagen-like domain (square) and mutant SP-A containing only the neck and C-lectin domain (CLD) (triangle) were incubated with LDL in the presence of 10 μM Cu^2+, and lipid peroxidation was quantified by TBARS assay. Data are means, n=3-4.

As for “SP-A: Native surfactant protein A isolated from the alveolar wash of silica-pretreated rats”, the “Decrease in number of CFUs” value in the test on E. coli is recorded as 90%. Besides, in test [1], the “Growth of P. aeruginosa (PAO1 mutant)” value was “inhibited the growth”. In addition, in the test with RAW 264.7 macrophages, the “Concentration at which protection reached a plateau” value is recorded as “approximately 1 μg/ml” and the “Half maximal concentration for protection from t-BOOH-induced death” value was 0.52 µg/mL. For the same molecule, in the test with LDL, the “I.C.50 (half-maximal point) for inhibition of copper-induced oxidation of LDL” value worked out at 4.75 µg/mL, the “Concentration of complete inhibition of LDL oxidation (to basal levels)” value came to 10 µg/mL, the IC50 came to 7.9 nM and the “Concentration required to provide the same level of antioxidant protection” value stood at 2.5 µg/mL. The “TBARS LDL Malondialdehyde” value in the test on LDL (LDL + Cu2+ + 10 μg/ml protein) came to 0.0 ± 0.0 µM.

B1: SP-D: Native surfactant protein D from rat alveolar wash; mouse SP-D was used interchangeably with rat SP-D (protein)
chain: AEMKSLSQRSVPNTCTLVMCSPTENGLPGRDGRDGREGPRGEKGDPGLPGPMGLSGLQGPTGPVGPKGENGSAGEPGPKGERGLSGPPGLPGIPGPAGKEGPSGKQGNIGPQGKPGPKGEAGPKGEVGAPGMQGSTGAKGSTGPKGERGAPGVQGAPGNAGAAGPAGPAGPQGAPGSRGPPGLKGDRGVPGDRGIKGESGLPDSAALRQQMEALKGKLQRLEVAFSHYQKAALFPDGRSVGDKIFRTADSEKPFEDAQEMCKQAGGQLASPRSATENAAIQQLITAHNKAAFLSMTDVGTEGKFTYPTGEPLVYSNWAPGEPNNNGGAENCVEIFTNGQWNDKACGEQRLVICEF
Take B1: in the test with RAW 264.7 macrophages, the “Concentration at which protection reached a plateau” value is “approximately 1 μg/ml” and the “Half maximal concentration for protection from t-BOOH-induced death” value turned out to be 0.56 µg/mL. In the test with LDL, the “I.C.50 (half-maximal point) for inhibition of copper-induced oxidation of LDL” value worked out at 0.14 µg/mL, the “Concentration of complete inhibition of LDL oxidation (to basal levels)” value is 1 µg/mL, the IC50 turned out to be 0.3 nM and the “Concentration required to provide the same level of antioxidant protection” value is 0.05 µg/mL. The “TBARS LDL Malondialdehyde” value with LDL (LDL + Cu2+ + 1 μg/ml protein) is 0.0 ± 0.0 µM.
